Data as given in patent US20260262643A1, “HERBICIDAL BENZOXAZINES” (FMC CORPORATION, priority 2022, published 2026).

Key:
barnyardgrass [1] = test: Test C postemergence; assay type: in vivo, Echinochloa crusgalli; conditions: 10 days
How it was run: (§1)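 Greenhouse herbicide screen, 10-day duration. Test chemicals in solvent/surfactant blend were sprayed onto soil at sowing (pre) or onto 2–10 cm seedlings at one to two leaves (post); injury scored visually against controls, 0 no effect to 100 complete control.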

soybean [2] = test: Test C preemergence; assay type: in vivo, Glycine max; conditions: preemergence, 0 to 100 scale (0 no effect, 100 complete control)
How it was run: as §1

blackgrass [3] = test: Test C postemergence; assay type: in vivo, Alopecurus myosuroides; conditions: 10 days
How it was run: as §1

horseweed = test: Test C postemergence; assay type: in vivo, Erigeron canadensis; conditions: 10 days
How it was run: as §1

blackgrass [4] = test: Test C preemergence; assay type: in vivo, Alopecurus myosuroides; conditions: 0 to 100 scale (0 no effect, 100 complete control)
How it was run: as §1

ragweed [5] = test: Test C preemergence; assay type: in vivo, Ambrosia artemisiifolia; conditions: preemergence, 0 to 100 scale (0 no effect, 100 complete control)
How it was run: as §1

pigweed, palmer [6] = test: Test C postemergence; assay type: in vivo, Amaranthus palmeri; conditions: 125 g ai/ha, postemergence, 10 days; 0 to 100 scale, 0 no effect, 100 complete control
How it was run: as §1

soybean [7] = test: Test C postemergence; assay type: in vivo, Glycine max; conditions: 125 g ai/ha, postemergence, 10 days; 0 to 100 scale, 0 no effect, 100 complete control
How it was run: as §1

wheat [8] = test: Test C postemergence; assay type: in vivo, Triticum aestivum; conditions: 125 g ai/ha, postemergence, 10 days; 0 to 100 scale, 0 no effect, 100 complete control
How it was run: as §1

green foxtail [9] = test: Test C preemergence; assay type: in vivo, Setaria viridis; conditions: preemergence, 0 to 100 scale (0 no effect, 100 complete control)
How it was run: as §1

oat, wild [10] = test: Test C postemergence; assay type: in vivo, Avena fatua; conditions: 125 g ai/ha, postemergence, 10 days; 0 to 100 scale, 0 no effect, 100 complete control
How it was run: as §1

green foxtail [11] = test: Test C postemergence; assay type: in vivo, Setaria viridis; conditions: 10 days
How it was run: as §1

sedge, umbrella = test: Test D flooded paddy test; assay type: in vivo, Cyperus difformis; conditions: 250 g ai/ha, applied to paddy water, visual rating after 13 to 14 days, scale 0 to 100 (0 no effect, 100 complete control)
How it was run: (§2)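 Plants at the 2-leaf stage were grown in pots flooded to 3 cm, and compound was applied directly into the paddy water, with depth kept throughout. After 13–14 days in a greenhouse, injury was rated visually against untreated controls on a 0–100 scale (100 = complete control); a dash means not tested.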

pigweed, palmer [12] = test: Test C preemergence; assay type: in vivo, Amaranthus palmeri; conditions: preemergence, 0 to 100 scale (0 no effect, 100 complete control)
How it was run: as §1

ducksalad = test: Test D flooded paddy test; assay type: in vivo, Heteranthera limosa; conditions: 250 g ai/ha, applied to paddy water, visual rating after 13 to 14 days, scale 0 to 100 (0 no effect, 100 complete control)
How it was run: as §2

corn [13] = test: Test C postemergence; assay type: in vivo, Zea mays; conditions: 10 days
How it was run: as §1

barnyardgrass [14] = test: Test D flooded paddy test; assay type: in vivo, Echinochloa crus-galli; conditions: 250 g ai/ha, applied to paddy water, visual rating after 13 to 14 days, scale 0 to 100 (0 no effect, 100 complete control)
How it was run: as §2

wheat [15] = test: Test C preemergence; assay type: in vivo, Triticum aestivum; conditions: preemergence, 0 to 100 scale (0 no effect, 100 complete control)
How it was run: as §1

ragweed [16] = test: Test C postemergence; assay type: in vivo, Ambrosia artemisiifolia; conditions: 125 g ai/ha, postemergence, 10 days; 0 to 100 scale, 0 no effect, 100 complete control
How it was run: as §1

corn [17] = test: Test C preemergence; assay type: in vivo, Zea mays; conditions: 500 g ai/ha, preemergence; 0 to 100 scale (0 no effect, 100 complete control)
How it was run: as §1

rice = test: Test D flooded paddy test; assay type: in vivo, Oryza sativa; conditions: 250 g ai/ha, applied to paddy water, visual rating after 13 to 14 days, scale 0 to 100 (0 no effect, 100 complete control)
How it was run: as §2

kochia [18] = test: Test C preemergence; assay type: in vivo, Bassia scoparia; conditions: preemergence, 0 to 100 scale (0 no effect, 100 complete control)
How it was run: as §1

ryegrass, Italian [19] = test: Test C preemergence; assay type: in vivo, Lolium multiflorum; conditions: preemergence, 0 to 100 scale (0 no effect, 100 complete control)
How it was run: as §1

kochia [20] = test: Test C postemergence; assay type: in vivo, Bassia scoparia; conditions: 125 g ai/ha, postemergence, 10 days; 0 to 100 scale, 0 no effect, 100 complete control
How it was run: as §1

oat, wild [21] = test: Test C preemergence; assay type: in vivo, Avena fatua; conditions: preemergence, 0 to 100 scale (0 no effect, 100 complete control)
How it was run: as §1

galium = test: Test C postemergence; assay type: in vivo, Galium aparine; conditions: 10 days
How it was run: as §1

ryegrass, Italian [22] = test: Test C postemergence; assay type: in vivo, Lolium multiflorum; conditions: 125 g ai/ha, postemergence, 10 days; 0 to 100 scale, 0 no effect, 100 complete control
How it was run: as §1

barnyardgrass [23] = test: Test C preemergence; assay type: in vivo, Echinochloa crusgalli; conditions: 0 to 100 scale (0 no effect, 100 complete control)
How it was run: as §1

[24] = 125 g ai/ha, postemergence, 0 to 100 scale, 0 no effect, 100 complete control
[25] = Postemergence, 500 g ai/ha, visual 0 to 100 scale (0 no effect, 100 complete control)
[26] = Preemergence, 500 g ai/ha, visual rating after 10 days
[27] = Test C, preemergence, 125 g ai/ha

Compound: Cc1cccc2c1O[C@@H](C)CN2C(=O)c1cccc(-n2cnc(C(C)(C)O)n2)c1 [Compound 278]
- Plant response rating, Barnyardgrass (barnyardgrass [1]; [24]): 50
- Plant response rating, Barnyardgrass (barnyardgrass [1]; [25]): 90
- Soybean plant response rating (soybean [2]; 500 g ai/ha): 100
- Soybean plant response rating (soybean [2]; Test C, 125 g ai/ha): 90
- Plant response rating, Blackgrass (blackgrass [3]; [24]): 90
- Plant response rating, Blackgrass (blackgrass [3]; [25]): 90
- Plant response rating, Horseweed (horseweed; [24]): 0
- Plant response rating, Horseweed (horseweed; [25]): 50
- Plant response rating, Blackgrass (blackgrass [4]; [26]): 90
- Blackgrass plant response rating (blackgrass [4]; [27]): 90
- Ragweed plant response rating (ragweed [5]; 500 g ai/ha): 80
- Ragweed plant response rating (ragweed [5]; Test C, 125 g ai/ha): 70
- Plant response rating, Pigweed, Palmer (pigweed, palmer [6]): 50
- Plant response rating, Soybean (soybean [7]): 100
- Plant response rating, Wheat (wheat [8]): 70
- Foxtail, Green plant response rating (green foxtail [9]; 500 g ai/ha): 100
- Foxtail, Green plant response rating (green foxtail [9]; Test C, 125 g ai/ha): 100
- Plant response rating, Oat, Wild (oat, wild [10]): 80
- Plant response rating, Foxtail, Green (green foxtail [11]; [24]): 50
- Plant response rating, Foxtail, Green (green foxtail [11]; [25]): 90
- Plant response rating, Sedge, Umbrella (Flood) (sedge, umbrella): 100
- Pigweed, Palmer plant response rating (pigweed, palmer [12]; 500 g ai/ha): 100
- Pigweed, Palmer plant response rating (pigweed, palmer [12]; Test C, 125 g ai/ha): 100
- Plant response rating, Ducksalad (Flood) (ducksalad): 100
- Plant response rating, Corn (corn [13]; [24]): 50
- Plant response rating, Corn (corn [13]; [25]): 90
- Plant response rating, Barnyardgrass (Flood) (barnyardgrass [14]): 45
- Wheat plant response rating (wheat [15]; 500 g ai/ha): 100
- Wheat plant response rating (wheat [15]; Test C, 125 g ai/ha): 50
- Plant response rating, Ragweed (ragweed [16]): 70
- Corn plant response rating (corn [17]): 80
- Plant response rating, Rice (Flood) (rice): 15
- Kochia plant response rating (kochia [18]; 500 g ai/ha): 100
- Kochia plant response rating (kochia [18]; Test C, 125 g ai/ha): 90
- Ryegrass, Italian plant response rating (ryegrass, Italian [19]; 500 g ai/ha): 100
- Ryegrass, Italian plant response rating (ryegrass, Italian [19]; Test C, 125 g ai/ha): 80
- Plant response rating, Kochia (kochia [20]): 80
- Oat, Wild plant response rating (oat, wild [21]; 500 g ai/ha): 90
- Oat, Wild plant response rating (oat, wild [21]; Test C, 125 g ai/ha): 80
- Plant response rating, Galium (galium; [24]): 100
- Plant response rating, Galium (galium; [25]): 100
- Plant response rating, Ryegrass, Italian (ryegrass, Italian [22]): 80
- Plant response rating, Barnyardgrass (barnyardgrass [23]; [26]): 100
- Barnyardgrass plant response rating (barnyardgrass [23]; [27]): 100
